Test results: PubChem BioAssay (NCI)
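96-well plates; 48 h exposure; 5 concentrations. Endpoints by linear interpolation between flanking doses. Not reached: highest tested concentration assigned. TGI: concentration producing complete growth inhibition.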

How the values were obtained:
Assay in all cases: NCI-60 cell line screen, 48 h
[1] = system: KM12 colon
[2] = system: MDA-MB-435
[3] = system: SNB-19 CNS
[4] = system: A549 NSCLC
[5] = system: MDA-MB-231 breast
[6] = system: HCT-116 colon
[7] = system: PC-3 prostate
[8] = system: SN12C renal
[9] = system: 786-0 renal
[10] = system: BT-549 breast
[11] = system: K-562 leukemia
[12] = system: CAKI-1 renal
[13] = system: SW-620 colon
[14] = system: SK-MEL-2 melanoma
[15] = system: HCT-15 colon
[16] = system: NCI/ADR-RES ovarian
[17] = system: SF-268 CNS
[18] = system: MALME-3M melanoma
[19] = system: HS 578T breast
[20] = system: MCF7 breast

Compound	TGI [1] [µM]	TGI [2] [µM]	TGI [3] [µM]	TGI [4] [µM]	TGI [5] [µM]	TGI [6] [µM]	TGI [7] [µM]	TGI [8] [µM]	TGI [9] [µM]	TGI [10] [µM]	TGI [11] [µM]	TGI [12] [µM]	TGI [13] [µM]	TGI [14] [µM]	TGI [15] [µM]	TGI [16] [µM]	TGI [17] [µM]	TGI [18] [µM]	TGI [19] [µM]	TGI [20] [µM]
CN(C(=S)Cc1ccc(Cl)c(Cl)c1)C1CCCC[C@@H]1N1CCCC1 (some centres undefined)	> 100	87.5	> 100	> 100	> 100	> 100	> 100	> 100	55	> 100	> 100	> 100	48.4	> 100	> 100	> 100				
CCCCCN(CCCCC)C(=O)[C@H](CCC(=O)O)NC(=O)c1cc2ccccc2[nH]1	> 100		> 100	> 100		92.5		> 100	> 100		> 100	> 100	> 100	> 100	> 100		> 100	> 100		
O=C(Nc1ccc([N+](=O)[O-])cc1[N+](=O)[O-])C(=O)C(C(=O)c1ccc(Cl)c(Cl)c1)C1OC(=O)c2ccccc21 (centres undefined)	37		66.7	73.7		38.4		85	41.5		82	> 100	54.6		76.7		76.3	> 100		
CC(=O)c1c2c(cc3c1CC1(Cc4cc5c(cc4C1)C(=O)CCC5)C3)CCCC2 (centres undefined)	78.4	11.4	80.9	> 88.2	55.1	> 47.1	> 83.5	> 100	33.1		4.79	> 100	> 100	7.76	19.3	> 100	65	> 100	> 88.3	18.7
COc1ccc(/C=C2\Sc3nnc(-c4ccccc4)n3N=C2c2cc(F)c(Cl)cc2Cl)cc1OC	> 100	> 100			> 100	> 100	> 100		> 100		> 100	> 100	92	> 100	> 100	> 100	> 100		> 100	> 100
COC1(OC)N=C(N)C2(C#N)C(C)=C3NCN(C)N=C3C12C#N (centres undefined)	> 100	> 100	> 100	> 100	> 100	> 100	> 100	> 100	> 100		> 100	> 100	> 100	> 100	> 100	> 100	> 100	> 100	> 100	> 100
Cc1ccc(C2[C@H]3C(=O)N(c4ccc(Cc5ccc(N6C(=O)[C@@H]7ON(c8ccccc8)C(c8ccc(C)cc8)[C@@H]7C6=O)cc5)cc4)C(=O)[C@H]3ON2c2ccccc2)cc1 (some centres undefined)	> 100			> 100				> 100	> 100		> 100	> 100	> 100	> 100	> 100		> 100	> 100		
COc1cc2c(c(OC)c1OC)C(=O)[C@@H](O)[C@H]2NC(N)=O	> 100	> 100	> 100	> 100	> 100	> 100	> 100	> 100	> 100		> 100	> 100	> 100		> 100	> 100	> 100	> 100	> 100	> 100
CC1(C2COC(=O)C2)SCCCS1 (centres undefined)	> 100		> 100	> 100		> 100		> 100	> 100			> 100	> 100	> 100	> 100		> 100	> 100		
CCCCCCCCCCCCCCCCCCOCC(C[N+]1(C)CCC(O)CC1)OCC (centres undefined)			28.3	32.9		27.6		15.4	19.4		19.1	21.1	35.5	20.9			15	28.8		
CCCCCCCCCC(=O)NC(CCC(=O)N(CCNC(=O)c1nc(-c2ccccc2)oc1-c1ccccc1)Cc1ccccc1)C(=O)O (centres undefined)	46.6	38.3	31.8	31.9	40.6	32.5		37.6	32	33.5		31.2	41.8		29.6	33.3	34.6	34.8		
NCCCC(N=Cc1nc(-c2ccccc2)oc1O)C(=O)O (centres undefined)			> 100	> 100		> 100		> 100	> 100		> 100		> 100	> 100	> 100		> 100	> 100		
COc1ccc(/C=N/N=C(\N)NO)cc1F	> 100		> 100	85.6		> 100		> 100	48.5		56.4	46.5	> 100	> 100	> 100		66.7	> 100		
CO[C@@H]1C[C@H]2[C@@H]3CC[C@H]([C@H](C)COC(C)=O)[C@@]3(C)CC[C@@H]2[C@@]2(C)CC[C@H]3C[C@]312	> 100	> 100	> 100	> 100	> 100	> 100	> 100	> 100	> 100		> 100	> 100	> 100		> 100	> 100	> 100	> 100	> 100	> 100
CC(=O)NC1CC(C(C)(C)NC(C)=O)CC=C1C (centres undefined)	> 100	> 100	> 100	> 100	> 100	> 100	> 100	> 100	> 100	> 100	> 100		> 100		> 100	> 100	> 100			> 100
CC(C)[C@@H]1CC[C@@H](C)C[C@H]1OC(=O)/C=C1\C(C(=O)O[C@@H]2C[C@H](C)CC[C@H]2C(C)C)[C@H]2C=C[C@@H]1O2 (some centres undefined)	> 100	> 100	> 100	> 100	> 100	> 100	> 100	> 100	> 100		> 100	> 100	> 100		> 100	> 100	> 100	> 100	> 100	71.6
O=c1[nH]nc(-c2ccccc2)n1-c1cccc([N+](=O)[O-])c1	> 100	> 100	> 100	> 100	> 100	> 100		> 100	> 100		> 100	> 100	> 100	> 100	> 100	> 100	> 100	> 100	> 100	> 100
O=C(O/N=c1/ccc(=O)/c(=N\OC(=O)c2ccccc2)c1=O)c1ccccc1	> 100	> 100	> 100	> 100		> 100	> 100	> 100	> 100		> 100	> 100	> 100		> 100	> 100	> 100		> 100	> 100
COc1ccc2cc(CN3CCC(C4CCN(Cc5ccc6cc(OC)ccc6c5)CC4)CC3)ccc2c1	6.31	3.58	16.6	> 100	9.97	10.6	48.7	24	4.23		2.12	8.42	7.98	12.7	3.04	25.9	10.8	4.51	11.8	> 100
CNC(=O)CCCNC(=O)CCCCC(=O)N(C)C	> 100	> 100	> 100	> 100	> 100	> 100	> 100	> 100	> 100		> 100	> 100	> 100	> 100		> 100	> 100	> 100		> 100
C=CC(=O)Nc1ccccc1CC(c1c[nH]c2ccccc12)c1c[nH]c2ccccc12	38.7		31.8	56.7				30.6	36.2		49.2	37.7	39.2	32.7	38.7		43.1	33.3		
CC(Cc1ccccc1)N(C)Cc1nc(C2CCC([N+](=O)[O-])O2)no1 (centres undefined)	21	20.4	25.2	27.4	9.93	25.3		11	24.6				14.9		7.07	82.5	> 100	25.6	17.9	15.5
